≈ marks a conversion by molar mass, not a printed value.
Assays:
[1] = Aqueous solubility; format: physicochemical; settings: aqueous medium at pH 7.4, pH 7.4, aqueous buffer
[2] = Distribution coefficient 1‐octanol / aqueous phosphate buffer; format: physicochemical; settings: pH 7.4

solubility [1] | logD [2] | Compound
3 µM (≈ 1.27 µg/mL) | – | O=C(NCc1cccc(CNC(=O)c2cc3ccccc3o2)c1)c1cc2ccccc2o1 [compound 28]
28 µM (≈ 11.1 µg/mL) | 4.6 | c1cc(CNCc2cc3ccccc3o2)cc(CNCc2cc3ccccc3o2)c1 [compound 29]

Source: publication PMC9826068 (Chemistry (Weinheim an Der Bergstrasse, Germany), 2022)
